Tested on: HepG2 cells
Assay: Test Example 2: inhibition of apolipoprotein B secretion from HepG2 cells, ELISA (also used for metabolites in Test Example 8)
Assay type: cell-based
Settings: Homo sapiens, 24 hours, apo B in supernatant by ELISA, read-out: Test Example 2 Inhibition of apo B secretion IC50
Description: Inhibition of Apolipoprotein B Secretion from HepG2 Cells
HepG2 cells were suspended in Dulbecco's Modified Eagle's Medium (DMEM) (containing 10% fetal bovine serum, 100 units/mL penicillin and 100 μg/mL streptomycin), and placed on a 96-well plate (4×10^4 cells/well), then incubated for 24 hours. After removal of the medium, DMEM was replaced by a medium containing a sample dissolved in DMSO or a medium containing DMSO (concentration of DMSO: 0.5%) and incubation was further performed for 24 hours, after which the supernatant was recovered, and concentration of apo B in the supernatant was assayed by Enzyme-Linked Immunosorbent Assay (ELISA)
ELISA was carried out as follows. Anti-human apo B monoclonal antibody (0.5 μg/well) diluted with a solution of sodium carbonate in sodium bicarbonate buffer (50 mL, pH 9.6) was placed in a 96-well plate for ELISA, and allowed to stand at room temperature for 15 hours. After washing the plate, a blocking solution (250 μL/well) was placed in the well, and allowed to stand at room temperature for 1.5 hours. After washing the plate, a standard and a sample (100 μL/well) were placed in the well and allowed to stand at room temperature for one hour. The standard was prepared by adjusting the concentration of the purified human apo B with the DMEM to 0 to 1000 ng/mL. After washing the plate, an anti-human apo B polyclonal antibody labeled with a horse radish peroxidase which was diluted in 1:1000 with DEME (100 μL/well), and allowed to stand at room temperature for one hour. After washing the plate, 2,2-azinobis(3-ethylbenzothiazoline-6-sulfonic acid) solution (100 μL/well) was placed in the well, and allowed to stand at room temperature for one hour. The reaction was stopped by addition of 2% oxalic acid (100 μL/well), and absorbency at 405 nm was measured. Concentration of apo B in the sample was calculated on the basis of a standard curve of the standard. Inhibition rate (%) was calculated from the assayed values in accordance with the following equation.
Inhibition rate (%)=100×(1 minus (concentration of apo B in sample group/concentration of apo B in DMSO group).
Based on the above equation, 50% inhibition concentration (IC50) was determined.
Inhibitory Activity on MTP and apo B Secretion Inhibition by Metabolites
In a similar manner to Test Examples 1 and 2, the activity of metabolites was assayed.

| Structure (SMILES) | IC50 [nM] |
| --- | --- |
| CCOC(=O)C(COC(=O)Cc1ccc(NC(=O)c2ccccc2-c2ccc(C(C)C)cc2)c(C(=O)N(C)C)c1)(C(=O)OCC)c1ccccc1 [Example 2-92] | 1.47 |
| CCOC(=O)C(COC(=O)Cc1ccc(NC(=O)c2sc(C)nc2-c2ccc(C(F)(F)F)cc2)cc1)(C(=O)OCC)c1ccccc1 [Example 1-74] | 680 |
| CCC(CC)(COC(=O)Cc1ccc(NC(=O)c2ccccc2-c2ccc(C(F)(F)F)cc2)c(C(=O)N(C)C)c1)c1ccccc1 [Example 2-98] | 0.97 |
| CCOC(=O)C(COC(=O)Cc1ccc(NC(=O)c2ccccc2-c2ccc(C(F)(F)F)cc2)c(C(C)C)c1)(C(=O)OCC)c1ccccc1 [Example 1-80] | 8.2 |
| CCOC(=O)C(CCOC(=O)Cc1ccc(NC(=O)c2ccc(C(F)(F)F)cc2-c2ccc(C(F)(F)F)cc2)c(C(=O)N(C)C)c1)(C(=O)OCC)c1ccccc1 [Example 2-84] | 2.01 |
| CN(C)C(=O)c1cc(CC(=O)OCC(C(=O)OCC(F)(F)F)(C(=O)OCC(F)(F)F)c2ccccc2)ccc1NC(=O)c1ccccc1-c1ccc(C(F)(F)F)cc1 [Example 2-56] | 0.93 |
| CCOC(=O)C(COC(=O)Cc1ccc(NC(=O)c2ccccc2-c2ccc(C(F)(F)F)cc2)c(C(=O)N(C)C)c1)(C(=O)OCC)c1ccc(OC)cc1 [Example 2-77] | 2.74 |
| CCOC(=O)C(COC(=O)Cc1ccc(NC(=O)c2ccc(Cl)cc2-c2ccc(C(F)(F)F)cc2)c(C(=O)N(C)C)c1)(C(=O)OCC)c1ccccc1 [Example 2-54] | 8.5 |
| CCOC(=O)C(COC(=O)Cc1ccc(NC(=O)c2ccccc2-c2ccc(F)cc2)c(C(=O)N(C)C)c1)(C(=O)OCC)c1ccccc1 [Example 2-33] | 13 |
| CCOC(=O)C(CC)(COC(=O)Cc1ccc(NC(=O)c2ccccc2-c2ccc(C(F)(F)F)cc2)c(C(=O)N(C)C)c1)C(=O)OCC [Example 2-115] | 44 |
| CCOC(=O)C(COC(=O)Cc1ccc(NC(=O)c2ccccc2-c2ccc(C(F)(F)F)cc2)c(C(=O)N(C)C)c1)(C(=O)OCC)C1CCCC1 [Example 2-40] | 0.99 |
| CCNC(=O)C(COC(=O)Cc1ccc(NC(=O)c2sc(C)nc2-c2ccc(C(F)(F)F)cc2)cc1)(C(=O)NCC)c1ccccc1 [Example 1-75] | 97 |
| CN(C)C(=O)c1cc(CC(=O)OCC2(c3ccccc3)CCCC2)ccc1NC(=O)c1ccccc1-c1ccc(C(F)(F)F)cc1 [Example 2-102] | 14.6 |
| CCNC(=O)C(COC(=O)Cc1ccc(NC(=O)c2ccccc2-c2ccc(C(F)(F)F)cc2)c(N(C)C)c1)(C(=O)NCC)c1ccccc1 [Example 4, 2-{3-Dimethylamino-4-[(4′-trifluoromethylbiphenyl-2-carbonyl)amino]phenyl}acetic acid 2,2-bisethylcarbamoyl-2-phenylethyl ester] | 0.33 |
| CCOC(=O)C(COC(=O)Cc1ccc(NC(=O)c2ccccc2-c2ccc(C(F)(F)F)cc2)c(C(=O)N(C)C)c1)(C(=O)OCC)c1cccs1 [Example 2-105] | 0.2 |
| CCCN(C)C(=O)c1cc(CC(=O)OCCC(C(=O)NCC)(C(=O)NCC)c2ccccc2)ccc1NC(=O)c1ccccc1-c1ccc(C(F)(F)F)cc1 [Example 2-20] | 0.64 |

| Structure (SMILES) | IC50 [nM] |
| --- | --- |
| CCOC(=O)C(COC(=O)Cc1cc(C(=O)N(C)C)c(NC(=O)c2ccccc2-c2ccc(C(F)(F)F)cc2)cn1)(C(=O)OCC)c1ccccc1 [Example 2-107] | 50 |
| CCOC(=O)C(COC(=O)Cc1ccc(NC(=O)c2ccc(C(F)(F)F)cc2-c2ccc(C(F)(F)F)cc2)c(C(=O)N(C)C)c1)(C(=O)OCC)c1ccccc1 [Example 2-78] | 0.14 |
| CCOC(=O)C(COC(=O)Cc1cc(C(=O)N(C)C)c(NC(=O)c2ccccc2-c2ccc(C(F)(F)F)cc2)c(Br)c1F)(C(=O)OCC)c1ccccc1 [Example 2-67] | 43 |
| CCOC(=O)C(COC(=O)Cc1ccc(NC(=O)c2ccccc2Oc2cccc(C(F)(F)F)c2)c(C(=O)N(C)C)c1)(C(=O)OCC)c1ccccc1 [Example 2-97] | 22 |
| CCOC(=O)C(COC(=O)Cc1cc(Cl)c(NC(=O)c2ccccc2-c2ccc(C(F)(F)F)cc2)c(C(=O)N(C)C)c1)(C(=O)OCC)c1ccccc1 [Example 2-60] | 1.3 |
| CCOC(=O)C(COC(=O)Cc1ccc(NC(=O)c2cc(C)ccc2-c2ccc(C(F)(F)F)cc2)c(C(=O)N(C)C)c1)(C(=O)OCC)c1ccccc1 [Example 2-47] | 1.2 |
| CCOC(=O)C(COC(=O)Cc1ccc(NC(=O)c2ccccc2Oc2ccccc2)c(C(=O)N(C)C)c1)(C(=O)OCC)c1ccccc1 [Example 2-45] | 39 |
| CCOC(=O)C(COC(=O)Cc1ccc(NC(=O)c2ccccc2-c2ccc(C(F)(F)F)cc2)c(C(=O)N(C)C)c1)(C(=O)OCC)c1ccsc1 [Example 2-106] | 0.44 |
| CCOC(=O)C(COC(=O)Cc1ccc(NC(=O)c2ccccc2-c2ccc(CC)cc2)c(C(=O)N(C)C)c1)(C(=O)OCC)c1ccccc1 [Example 2-90] | 1.74 |
| CCOC(=O)C(COC(=O)Cc1ccc(NC(=O)c2c(C)cccc2-c2ccc(C(F)(F)F)cc2)c(C(=O)N(C)C)c1)(C(=O)OCC)c1ccccc1 [Example 2-86] | 0.42 |
| CCNC(=O)C(COC(=O)Cc1ccc(NC(=O)c2cccnc2-c2ccc(C(F)(F)F)cc2)cc1)(C(=O)NCC)c1ccccc1 [Example 1-76] | 120 |
| CC(=O)OCC(COC(C)=O)(COC(=O)Cc1ccc(NC(=O)c2ccccc2-c2ccc(C(F)(F)F)cc2)c(C(=O)N(C)C)c1)c1ccccc1 [Example 2-104] | 3.58 |
| CCOC(=O)C(COC(=O)Cc1ccc(NC(=O)c2ccccc2-c2ccc(C(F)(F)F)c(F)c2)c(C(=O)N(C)C)c1)(C(=O)OCC)c1ccccc1 [Example 2-61] | 0.38 |
| CCOC(=O)C(COC(=O)Cc1ccc(NC(=O)c2ccc(OC(C)C)cc2-c2ccc(C(F)(F)F)cc2)c(C(=O)N(C)C)c1)(C(=O)OCC)c1ccccc1 [Example 2-83] | 8.87 |
| CCOC(=O)C(COC(=O)Cc1ccc(NC(=O)c2ccccc2Oc2ccc(C(F)(F)F)cc2)c(C(=O)N(C)C)c1)(C(=O)OCC)c1ccccc1 [Example 2-99] | 19 |

The remaining lines, values ahead:

| IC50 [nM] | Structure (SMILES) |
| --- | --- |
| 6.4 | CCOC(=O)C(CCOC(=O)Cc1cccc(NC(=O)c2ccccc2-c2ccc(C(F)(F)F)cc2)c1OCC)(C(=O)OCC)c1ccccc1 [Example 5-15] |
| 59 | CCNC(=O)C(COC(=O)Cc1ccc2c(c1)oc(=O)n2C(=O)c1ccccc1-c1ccc(C(F)(F)F)cc1)(C(=O)NCC)c1ccccc1 [Example 9-3, [2-Oxo-3-(4′-trifluoromethylbiphenyl-2-carbonyl)-2,3-dihydrobenzoxazol-6-yl]acetic acid 2,2-bisethylcarbamoyl-2-phenylethyl ester] |
| 0.72 | CCCOc1cc(CC(=O)OCC(C(=O)NCC)(C(=O)NCC)c2ccccc2)ccc1NC(=O)c1ccccc1-c1ccc(C(F)(F)F)cc1 [Example 3-12] |
| 3.1 | CCOC(=O)C(COC(=O)CCc1ccc(NC(=O)c2ccccc2-c2ccc(C(F)(F)F)cc2)c(C(=O)N(C)C)c1)(C(=O)OCC)c1ccccc1 [Example 9-5, 2-(3-{3-Dimethylcarbamoyl-4-[(4′-trifluoromethylbiphenyl-2-carbonyl)-amino]-phenyl}-propionyloxymethyl)-2-phenyl-malonic acid diethyl ester] |
| 4.2 | CCNC(=O)C(COC(=O)Cc1ccc(NC(=O)c2ccccc2-c2ccc(C(F)(F)F)cc2)c(O)c1)(C(=O)NCC)c1ccccc1 [Example 3-2, {3-Hydroxy-4-[(4′-trifluoromethylbiphenyl-2-carbonyl)amino]phenyl}acetic acid 2,2-bisethylcarbamoyl-2-phenylethyl ester] |
| 7.9 | CCNC(=O)C(COC(=O)Cc1ccc(NC(=O)c2ccccc2-c2ccc(C(F)(F)F)cc2)c(N2CCCC2)c1)(C(=O)NCC)c1ccccc1 [Example 4-3] |
| 8.77 | CCOC(=O)C(COC(=O)Cc1ccc(NC(=O)c2ccccc2-c2ccc(C(F)(F)F)cc2)c(-c2nc(C)cs2)c1)(C(=O)OCC)c1ccccc1 [Example 9-23] |
| 5.2 | CCOC(=O)C(COC(=O)Cc1ccc(NC(=O)c2ccccc2-c2ccc(C(F)(F)F)cc2)c(N2CCCC2)c1)(C(=O)OCC)c1ccccc1 [Example 4-5] |
| 16 | CCNC(=O)C(COC(=O)Cc1ccc(NC(=O)c2ccccc2-c2ccc(C(F)(F)F)cc2)c(N2CCCCC2)c1)(C(=O)NCC)c1ccccc1 [Example 4-2] |
| 6.9 | CCNC(=O)C(COC(=O)Cc1ccc(NC(=O)c2ccccc2-c2ccc(C(F)(F)F)cc2)c(C(=O)OCc2ccccc2)c1)(C(=O)NCC)c1ccccc1 [Example 9-8] |
| 0.34 | CCNC(=O)C(CCOC(=O)Cc1cccc(NC(=O)c2ccccc2-c2ccc(C(F)(F)F)cc2)c1OCC)(C(=O)NCC)c1ccccc1 [Example 5-14] |
| 0.96 | CCOC(=O)C(COC(=O)Cc1ccc(NC(=O)c2ccccc2-c2ccc(C(F)(F)F)cc2)c(NC(=O)OC)c1)(C(=O)OCC)c1ccccc1 [Example 9-22] |
